Where two headings read alike, the source gives them in different places.
System: Bmi-1 protein
Assay: Sandwich ELISA Assay (Bmi-1 protein level in HT-1080 cells after compound treatment)
Type: cell-based
Summary of the method: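 Sandwich ELISA quantified Bmi-1 protein against recombinant standard (125–8000 pg/mL), with lysates captured overnight at 4 °C and signal by HRP/TMB at 450 nm (570 nm reference). Lysates came from HT-1080 cells incubated 40–48 h with test compounds in 0.5% DMSO.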

[1] = Table 1, Bmi-1 sandwich ELISA, read-out: ELISA EC50 value for Bmi-1 protein
[2] = read-out: ELISA EC50 value for Bmi-1 protein, Table 1, Bmi-1 sandwich ELISA

Structure (SMILES) | EC50 [1] [nM] | EC50 [2] [nM]
CNc1ccc2nc(C)n(-c3cncc(Nc4ccc(C(F)(F)F)cc4)n3)c2c1 [compound 274, N,2-dimethyl-1-(6-{[4-(trifluoromethyl)phenyl]amino}pyrazin-2-yl)-1H-benzimidazol-6-amine] | 10 to 100 | 
Cc1nc2c(n1-c1cncc(Nc3ccc(C(F)(F)F)cc3)n1)CCCC2 [compound 267, 6-(2-methyl-4,5,6,7-tetrahydro-1H-benzimidazol-1-yl)-N-[4-(trifluoromethyl)phenyl]pyrazin-2-amine] | 1 to 10 | 
Cc1ccc(Nc2cncc(-c3c(C(F)(F)F)nn4ccccc34)n2)cc1 [compound 75, N-(4-methylphenyl)-6-[2-(trifluoromethyl)pyrazolo[1,5-a]pyridin-3-yl]pyrazin-2-amine] | 1 to 10 | 
Cc1nc2cc(F)c(F)cc2n1-c1cc(C#N)cc(Nc2ccc(OC(F)F)cc2)n1 [compound 242, 2-{[4-(difluoromethoxy)phenyl]amino}-6-(5,6-difluoro-2-methyl-1H-benzimidazol-1-yl)pyridine-4-carbonitrile] | 10 to 100 | 
Cc1nc2ncc(Cl)cc2n1-c1cc(C#N)cc(Nc2ccc(OC(F)F)c(F)c2)n1 [compound 429, 2-(6-chloro-2-methyl-1H-imidazo[4,5-b]pyridin-1-yl)-6-{[4-(difluoromethoxy)-3-fluorophenyl]amino}pyridine-4-carbonitrile] | 1 to 10 | 
C=CCN1CCc2c(nc(C)n2-c2cncc(Nc3ccc(C(F)(F)F)cc3)n2)C1 [compound 375] | 100 to 3000 | 
COc1ccc(Nc2nc(-n3c(C)nc4ccccc43)ccc2N)cc1 [Cpd 518, N^2-(4-methoxyphenyl)-6-(2-methyl-1H-benzimidazol-1-yl)pyridine-2,3-diamine] |  | 10 to 100
OCc1nc2ccc(F)cn2c1-c1cncc(Nc2ccc(C(F)(F)F)cc2)n1 [compound 328, [6-fluoro-3-(6-{[4-(trifluoromethyl)phenyl]amino}pyrazin-2-yl)imidazo[1,2-a]pyridin-2-yl]methanol] | 1 to 10 | 
Cc1ccc(Nc2cc(C#N)cc(-n3c(C)nc4ccccc43)n2)cc1 [Cpd 634, 2-(2-methyl-1H-benzimidazol-1-yl)-6-[(4-methylphenyl)amino]pyridine-4-carbonitrile] | 10 to 100 | 
N#Cc1cc(Nc2ccc(Cl)nc2)nc(-c2c(CO)nc3ccc(F)cn23)c1 [compound 446, 2-[(6-chloropyridin-3-yl)amino]-6-[6-fluoro-2-(hydroxymethyl)imidazo[1,2-a]pyridin-3-yl]pyridine-4-carbonitrile] | 100 to 3000 | 
Cc1nc2c(N)cccc2n1-c1cncc(Nc2ccc(C(F)(F)F)cc2)n1 [compound 296, 2-methyl-1-(6-{[4-(trifluoromethyl)phenyl]amino}pyrazin-2-yl)-1H-benzimidazol-4-amine] | 10 to 100 | 
CCc1nc2ccccc2n1-c1cncc(Nc2ccc(C(F)(F)F)cc2)n1 [compound 51, 6-(2-ethyl-1H-benzimidazol-1-yl)-N-[4-(trifluoromethyl)phenyl]pyrazin-2-amine] | 1 to 10 | 
CCCCc1nc2ccccc2n1-c1cncc(Nc2ccc(C(F)(F)F)cc2)n1 [compound 80, 6-(2-butyl-1H-benzimidazol-1-yl)-N-[4-(trifluoromethyl)phenyl]pyrazin-2-amine] | 100 to 3000 | 
CNc1nc2ccccc2n1-c1cncc(Nc2ccc(OC(F)(F)F)cc2)n1 [compound 183, N-methyl-1-(6-{[4-(trifluoromethoxy)phenyl]amino}pyrazin-2-yl)-1H-benzimidazol-2-amine] | 10 to 100 | 
Oc1ccc(Nc2cncc(-c3c(C(F)(F)F)nc4ccccn34)n2)cc1 [compound 207, 4-({6-[2-(trifluoromethyl)imidazo[1,2-a]pyridin-3-yl]pyrazin-2-yl}amino)phenol] | 100 to 3000 | 
Cc1nc2ccc(F)cc2n1-c1cncc(Nc2ccc(C(F)(F)F)nc2)n1 [compound 432, 6-(6-fluoro-2-methyl-1H-benzimidazol-1-yl)-N-[6-(trifluoromethyl)pyridin-3-yl]pyrazin-2-amine] | 10 to 100 | 
FC(F)(F)COc1ccc(Nc2cncc(-c3c(C(F)(F)F)nc4ccccn34)n2)cc1 [compound 321, N-[4-(2,2,2-trifluoroethoxy)phenyl]-6-[2-(trifluoromethyl)imidazo[1,2-a]pyridin-3-yl]pyrazin-2-amine] | 10 to 100 | 
Cc1nc2ccccc2n1-c1cncc(Nc2ccc(C(F)(F)F)c(C#N)c2)n1 [compound 517, 5-{[6-(2-methyl-1H-benzimidazol-1-yl)pyrazin-2-yl]amino}-2-(trifluoromethyl)benzonitrile] | 100 to 3000 | 
CSc1ccc(Nc2cncc(-c3c(C(F)(F)F)nc4ccccn34)n2)cc1 [compound 69, N-[4-(methylsulfanyl)phenyl]-6-[2-(trifluoromethyl)imidazo[1,2-a]pyridin-3-yl]pyrazin-2-amine] | 1 to 10 | 

Structure (SMILES) | EC50 [1] [nM] | EC50 [2] [nM]
COc1ccc(Nc2cccc(-c3c(C(F)(F)F)nc4ccccn34)n2)cc1 [Cpd 4, N-(4-methoxyphenyl)-6-[2-(trifluoromethyl)imidazo[1,2-a]pyridin-3-yl]pyridin-2-amine] | 1 to 10 | 
FC(F)(F)c1ccc(Nc2cncc(-c3c(C(F)(F)F)nc4cnccn34)n2)cc1 [compound 93, 6-[2-(trifluoromethyl)imidazo[1,2-a]pyrazin-3-yl]-N-[4-(trifluoromethyl)phenyl]pyrazin-2-amine] | 10 to 100 | 
Cc1nn2ccccc2c1-c1cc(C#N)cc(Nc2ccc(OC(F)F)c(F)c2)n1 [compound 513, 2-{[4-(difluoromethoxy)-3-fluorophenyl]amino}-6-(2-methylpyrazolo[1,5-a]pyridin-3-yl)pyridine-4-carbonitrile] | 10 to 100 | 
Cc1nn(C)c(C)c1-c1cncc(Nc2ccc(Br)cc2)n1 [compound 106, N-(4-bromophenyl)-6-(1,3,5-trimethyl-1H-pyrazol-4-yl)pyrazin-2-amine] | < 1 | 
Cc1cc2nc(C)n(-c3cncc(Nc4ccc(OC(F)(F)F)cc4)n3)c2cc1C [compound 387, N-[4-(trifluoromethoxy)phenyl]-6-(2,5,6-trimethyl-1H-benzimidazol-1-yl)pyrazin-2-amine] | 100 to 3000 | 
Cc1nc2cc(F)c(F)cc2n1-c1c[n+]([O-])cc(Nc2ccc(OC(F)F)cc2)n1 [compound 516, N-[4-(difluoromethoxy)phenyl]-6-(5,6-difluoro-2-methyl-1H-benzimidazol-1-yl)pyrazin-2-amine 4-oxide] | 10 to 100 | 
FC1CCc2nc(C(F)(F)F)c(-c3cncc(Nc4ccc(C(F)(F)F)cc4)n3)n2C1 (centres unmarked) [compound 406, 6-[6-fluoro-2-(trifluoromethyl)-5,6,7,8-tetrahydroimidazo[1,2-a]pyridin-3-yl]-N-[4-(trifluoromethyl)phenyl]pyrazin-2-amine] | 10 to 100 | 
COc1ccc2nc(C(F)(F)F)c(-c3cncc(Nc4ccc(C(F)(F)F)cc4)n3)n2c1 [Cpd 46, 6-[6-methoxy-2-(trifluoromethyl)imidazo[1,2-a]pyridin-3-yl]-N-[4-(trifluoromethyl)phenyl]pyrazin-2-amine] | 10 to 100 | 
CCc1nc2ncccc2n1-c1cncc(Nc2ccc(C(F)(F)F)cc2)n1 [compound 83, 6-(2-ethyl-1H-imidazo[4,5-b]pyridin-1-yl)-N-[4-(trifluoromethyl)phenyl]pyrazin-2-amine] | 10 to 100 | 
CCc1nc2cc(F)c(F)cc2n1-c1cc(N)c(F)c(Nc2ccc(C(F)(F)F)cc2)n1 [compound 509, 6-(2-ethyl-5,6-difluoro-1H-benzimidazol-1-yl)-3-fluoro-N^2-[4-(trifluoromethyl)phenyl]pyridine-2,4-diamine] | 10 to 100 | 
N#Cc1cc(Nc2ccc(C(F)(F)F)cc2)nc(-c2c(C(F)(F)F)nc3ccccn23)c1 [compound 210, 2-[2-(trifluoromethyl)imidazo[1,2-a]pyridin-3-yl]-6-{[4-(trifluoromethyl)phenyl]amino}pyridine-4-carbonitrile] | 10 to 100 | 
Cn1nc2ccc(F)cc2c1-c1cncc(Nc2ccc(C(F)(F)F)cc2)n1 [compound 416, 6-(5-fluoro-2-methyl-2H-indazol-3-yl)-N-[4-(trifluoromethyl)phenyl]pyrazin-2-amine] | 10 to 100 | 
Cc1nc2ccccc2n1-c1cc(F)cc(Nc2ccc(C(F)(F)F)cc2[N+](=O)[O-])n1 [Cpd 493, 4-fluoro-6-(2-methyl-1H-benzimidazol-1-yl)-N-[2-nitro-4-(trifluoromethyl)phenyl]pyridin-2-amine] | 100 to 3000 | 
Cc1nc2ccc(F)cc2n1-c1cc(C#N)cc(Nc2ccc(OC(F)(F)F)cc2)n1 [compound 588, 2-(6-fluoro-2-methyl-1H-benzimidazol-1-yl)-6-{[4-(trifluoromethoxy)phenyl]amino}pyridine-4-carbonitrile] | 10 to 100 | 
Cc1nn(C)c(Cl)c1-c1cncc(Nc2ccc(OC(F)F)c(F)c2)n1 [compound 415, 6-(5-chloro-1,3-dimethyl-1H-pyrazol-4-yl)-N-[4-(difluoromethoxy)-3-fluorophenyl]pyrazin-2-amine] | 10 to 100 | 
Cc1nc2cc(Cl)ccc2n1-c1cncc(Nc2ccc(C(F)(F)F)cc2)n1 [compound 239, 6-(5-chloro-2-methyl-1H-benzimidazol-1-yl)-N-[4-(trifluoromethyl)phenyl]pyrazin-2-amine] | 10 to 100 | 
Cc1nc2cc(F)c(F)cc2n1-c1cncc(Nc2ccc(Cl)nc2)n1 [compound 405, N-(6-chloropyridin-3-yl)-6-(5,6-difluoro-2-methyl-1H-benzimidazol-1-yl)pyrazin-2-amine] | 100 to 3000 | 
CCc1nn2ccccc2c1-c1cc(C#N)cc(Nc2ccc(OC(F)F)c(F)c2)n1 [compound 528, 2-{[4-(difluoromethoxy)-3-fluorophenyl]amino}-6-(2-ethylpyrazolo[1,5-a]pyridin-3-yl)pyridine-4-carbonitrile] | 10 to 100 | 
Cc1nc2ccccc2n1-c1cc(N)cc(Nc2ccc(C(F)(F)F)cc2)n1 [Cpd 492, 6-(2-methyl-1H-benzimidazol-1-yl)-N^2-[4-(trifluoromethyl)phenyl]pyridine-2,4-diamine] |  | 10 to 100
